From US10077287B2, “Tubulysin analogs and methods of making and use” (priority 2014, dated 2018)

What was measured:
[1] = system: ADR (human breast cancer, multi-drug resistant); test: Inhibition of cell proliferation (ATP luminescence or MTS assay), ADR; format: cell-based; settings: 72 h, read-out: Cancer Cell Line: EC50 (nM) ADR
Method: (§1) The cancer cells lines tested against were: H226 (human lung cancer); N87 (human gastric cancer), OVCAR3 (human ovarian cancer), HCT116 (human colon cancer), HCT116NM46 (HCT116 subline with multi-drug resistance, including to paclitaxel), and ACR (human breast cancer, multi-drug resistant). Table II also includes comparative data against reference compounds (A)-(G) not according to this invention:
(§2) The ability of test compounds to inhibit cell proliferation was measured by either an ATP luminescence assay or an MTS cell proliferation assay. […] In some instances, both methods were used.
This is a general procedure for an ATP luminescence assay: Cells are seeded at 1×10^3 cells/well in 96-well plates for 3 h for ATP CellTiterGlo™ assays, respectively. Serial dilutions (1:3) of compounds are added to the wells. Plates are allowed to incubate for 72 h. […]
The following is a description of the MTS cell proliferation assay: CellTiter 96 Aqueous Non-Radioactive Cell proliferation Kit from Promega (Madison, Wis.) is used to determine the number of viable cells in cell proliferation assay. […] Absorbance at 490 nm is measured on an Envision reader (Perkin Elmer, Boston, Mass.). […] The plates are further incubated at 37° C. in 5% CO2 for three hours and the absorbance values at A490 were measured on an Envision reader.

[2] = system: N87 (human gastric cancer); test: Inhibition of cell proliferation (ATP luminescence or MTS assay), N87; format: cell-based; settings: 72 h, read-out: Cancer Cell Line: EC50 (nM) N87
Method: as §1, §2
(§3) This is a general procedure for an ATP luminescence assay: Cells are seeded at 1×10^3 cells/well in 96-well plates for 3 h for ATP CellTiterGlo™ assays, respectively. Serial dilutions (1:3) of compounds are added to the wells. Plates are allowed to incubate for 72 h. A CellTiterGlo™ cell viability kit from Promega is used to measure ATP content of cells treated with test compounds following manufacturer's instruction. A decrease in the ATP content is a measure of decrease in cellular viability. The EC50 value—the concentration at which an agent reduces cell viability by 50% of the maximum effect—is determined using PRISM™ software, version 5.0 (GraphPad Software, La Jolla, Calif., USA).
(§4) The following is a description of the MTS cell proliferation assay: CellTiter 96 Aqueous Non-Radioactive Cell proliferation Kit from Promega (Madison, Wis.) is used to determine the number of viable cells in cell proliferation assay. Tumor cells are plated at certain seeding densities in sterile 384-well black clear bottom Matrix plates at 40 μL per well and incubated overnight at 37° C. in 5% CO2 before assaying. On the next day, one set of cell plates (T0 plates) is used to determine time zero cell density, and 3-(4,5-dimethylthiazol-2-yl)-5-(3-carboxymethoxyphenyl)-2-(4-sulfophenyl)-2H-tetrazolium is added at 4 μL/well into T0 plates followed by incubation at 37° C. in 5% CO2 for three hours. This tetrazolium reagent is bioreduced by […] to form a formazan product which is soluble in aqueous solution. Absorbance at 490 nm is measured on an Envision reader (Perkin Elmer, Boston, Mass.). On the same day, compounds are added into remaining cell plates (T72 plates) and incubated at 37° C. in 5% CO2. After 72 hours, 4 μL MTS reagents are then added into those cell plates. The plates are further incubated at 37° C. in 5% CO2 for three hours and the absorbance values at A490 were measured on an Envision reader.

[3] = system: HCT116/VM46 (HCT116 subline with multi-drug resistance, including to paclitaxel); test: Inhibition of cell proliferation (ATP luminescence or MTS assay), HCT116/VM46; format: cell-based; settings: Homo sapiens, HCT-116/VM46, multi-drug resistant HCT116 subline, 72 h, read-out: Cancer Cell Line: EC50 (nM) HCT116/VM46
Method: as §1, §2, §3, §4

[4] = system: HCT116 (human colon cancer); test: Inhibition of cell proliferation (ATP luminescence or MTS assay), HCT116; format: cell-based; settings: HCT-116, 72 h, read-out: Cancer Cell Line: EC50 (nM) HCT116
Method: as §1, §2, §3, §4

H226 (human lung cancer) = test: Inhibition of cell proliferation (ATP luminescence or MTS assay), H226; format: cell-based; settings: NCI-H226, 72 h, read-out: Cancer Cell Line: EC50 (nM) H226
Method: as §1, §2, §3, §4

[5] = system: OVCAR3 (human ovarian cancer); test: Inhibition of cell proliferation (ATP luminescence or MTS assay), OVCAR3; format: cell-based; settings: OVCAR-3, 72 h, read-out: Cancer Cell Line: EC50 (nM) OVCAR3
Method: as §1, §2, §3, §4

[6] = in vitro assays; Kaur et al. 2006; cited from earlier work
cancer cells [7] = settings: Kaur et al. 2006; cited from earlier work
[8] = system: various cancer cell lines; settings: Kaur et al. 2006; cited from earlier work
cancer cells [9] = settings: cancer cells versus normal cells; Kaur et al. 2006; cited from earlier work

SMILES | EC50 [1] | EC50 [2] | EC50 [3] | EC50 [4] | EC50 (H226 (human lung cancer)) | EC50 [5] | antiangiogenic properties [6] | antiproliferative potency compared with paclitaxel and vinblastine (cancer cells [7]) | activity in xenograft assays [8] | induction of apoptosis (cancer cells [9])
CCCN(C(=O)[C@@H](NC(=O)[C@H]1CCCCN1C)[C@@H](C)CC)[C@H](C[C@@H](OC(=O)NC)c1nc(C(=O)N[C@@H](Cc2ccc(N)cc2)CC(C)(C)C(=O)O)cs1)C(C)C [(Ia-2), (S)-5-(4-aminophenyl)-4-(2-((5R,7R,10S)-10-((S)-sec-butyl)-7-isopropyl-12-((R)-1-methylpiperidin-2-yl)-3,9,12-trioxo-8-propyl-4-oxa-2,8,11-triazadodecan-5-yl)thiazole-4-carboxamido)-2,2-dimethylpentanoic acid] | 9.5 nM | 0.65 to 1 nM | 1.22 nM | 0.58 nM | 0.33 to 1.1 nM | 0.07 to 0.1 nM |  |  |  | 
CCCN(C(=O)[C@@H](NC(=O)[C@H](NC)C(C)C)[C@@H](C)CC)[C@H](C[C@@H](OC(C)=O)c1nc(C(=O)N[C@@H](Cc2ccccc2)CC(C)(C)C(=O)O)cs1)C(C)C [(Ic-1), (S)-4-(2-((3R,6S,9R,11R)-6-((S)-sec-butyl)-3,9-diisopropyl-4,7,13-trioxo-8-propyl-12-oxa-2,5,8-triazatetradecan-11-yl)thiazole-4-carboxamido)-2,2-dimethyl-5-phenylpentanoic acid] |  | 0.2 nM | 0.51 nM | 0.064 nM | 0.038 nM | 0.012 nM |  |  |  | 
CCCN(C(=O)[C@@H](NC(=O)[C@H]1CCCCN1C)[C@@H](C)CC)[C@H](C[C@@H](OC(=O)NC)c1nc(C(=O)N[C@@H](Cc2ccc(N)cc2)CC2(C(=O)O)CC2)cs1)C(C)C [(Ib-1), 1-((S)-3-(4-aminophenyl)-2-(2-((5R,7R,10S)-10-((S)-sec-butyl)-7-isopropyl-12-((R)-1-methylpiperidin-2-yl)-3,9,12-trioxo-8-propyl-4-oxa-2,8,11-triazadodecan-5-yl)thiazole-4-carboxamido)propyl)cyclopropanecarboxylic acid] |  | 1.7 nM |  |  | 0.63 nM | 0.07 nM |  |  |  | 
CCCN(C(=O)[C@@H](NC(=O)[C@H]1CCCCN1C)[C@@H](C)CC)[C@H](C[C@@H](OC(C)=O)c1nc(C(=O)N[C@@H](Cc2ccc(N)cc2)CC(C)(C)C(=O)O)cs1)C(C)C [(Ia-1)] |  | 0.03 to 0.2 nM |  |  | 0.089 nM | 0.016 to 0.04 nM |  |  |  | 
CCCN(C(=O)[C@@H](NC(=O)[C@H]1CCCCN1C)[C@@H](C)CC)[C@H](C[C@@H](OC(=O)NC)c1nc(C(=O)N[C@H](CCC(=O)O)Cc2ccc(N)cc2)cs1)C(C)C [(E), reference compound] | 189 nM |  |  |  | 28 nM |  |  |  |  | 
CCCN(C(=O)[C@@H](NC(=O)[C@H]1CCCCN1C)C(C)C)[C@H](C[C@@H](OC(C)=O)c1nc(C(=O)N[C@@H](Cc2ccc(N)cc2)CC(C)(C)C(=O)O)cs1)C(C)C [(Ia-3)] |  | 0.16 nM | 0.19 nM | 0.13 nM | 0.086 nM | 0.019 nM |  |  |  | 
CCCN(C(=O)[C@@H](NC(=O)[C@H]1CCCCN1C)[C@@H](C)CC)[C@H](C[C@@H](OC(=O)NC)c1nc(C(=O)N[C@@H](Cc2ccc(N)cc2)CC2(C(=O)OC)CC2)cs1)C(C)C [(Ib-2), methyl 1-((S)-3-(4-aminophenyl)-2-(2-((5R,7R,10S)-10-((S)-sec-butyl)-7-isopropyl-12-((R)-1-methylpiperidin-2-yl)-3,9,12-trioxo-8-propyl-4-oxa-2,8,11-triazadodecan-5-yl)thiazole-4-carboxamido)propyl)cyclopropanecarboxylate] |  | 4.4 nM |  |  | 0.4 nM | 0.15 nM |  |  |  | 
CCCN(C(=O)[C@@H](NC(=O)[C@H](NC)C(C)C)[C@@H](C)CC)[C@H](C[C@@H](OC(=O)NC)c1nc(C(=O)N[C@@H](Cc2ccccc2)CC(C)(C)C(=O)O)cs1)C(C)C [(Ic-2)] |  | 0.37 nM | 7.5 nM | 0.26 nM | 0.31 nM | 0.04 nM |  |  |  | 
CC[C@H](C)[C@H](NC(=O)[C@H]1CCCCN1C)C(=O)N(COC(=O)CC(C)C)[C@H](C[C@@H](OC(C)=O)c1nc(C(=O)N[C@@H](Cc2ccc(O)cc2)C[C@H](C)C(=O)O)cs1)C(C)C [tubulysin A] |  |  |  |  |  |  | significant potential antiangiogenic properties | more potent than paclitaxel and vinblastine | active in xenograft assays | induced apoptosis in cancer cells but not in normal cells
